The source of these data is patent publication US20110217337A1, “BIOACTIVE AGENT FOR BONE TISSUE ENGINEERING” (UNIVERSITY OF CONNECTICUT, priority 2010, published 2011).

Data set [1] deals with MC3T3E1 cells. In words: Cell adhesion on PLAGA matrices (crystal violet stain). To be noted: 100 μM vs untreated, adhesion for at least 1 h. The class given is cell-based. How it is done: FIG. 2. Effects of 6-Bnz-cAMP on cell adhesion in MC3T3E1 on PLAGA matrices. Cells were treated with 100 μM 6-Bnz-cAMP or untreated. Cells were allowed to adhere for at least 1 h, and nonadherent cells were removed by washing with phosphate buffer saline (PBS). The adhered cells were stained with crystal violet solution for 15 minutes at room temperature and the absorbed stain dye was then solubilized in 1% SDS solution. The amount of dye taken up by the cells was measured in a spectrophotometer. The plots shown are representative of two independent experiments, each done in triplicate (n=3). Error bars represent SD.
For these experiments, the polymer component of the scaffold, poly(lactic-co-glycolide) (PLAGA) was selected because of its documented degradability and biocompatibility.
More specifically, thin film discs of poly(lactic-co-glycolide) (PLAGA) were fabricated using a traditional solvent-casting method. In this process, the polymer was first dissolved in methylene chloride, then poured into a Teflon-coated dish. The dishes were then placed in a −20° C. freezer to allow solvent evaporation. […]
Adhesion: In the cell adhesion study presented in FIG. 2 cells were allowed to adhere for at least 1 h, and nonadherent cells were removed by washing with phosphate buffer saline (PBS). […] The amount of dye taken up by the cells was measured in a spectrophotometer.

In data set [2] the test system is MC3T3-E1 cells. In words: ALP activity assay. To be noted: 100 μM. The class given is cell-based. How it is done: FIG. 5. 6-Bnz-cAMP increases ALP activities at day 7 and 14. […] To facilitate the comparison of different experimental settings, the ALP activity of the cells cultured in the regular growth medium at Day 7 was set to one relative unit.
MC3T3-E1 cells were grown in mineralization media. 6-Bnz-cAMP was added to the culture medium to a final concentration of 100 μM for experiments; mineralization media only was used for positive controls. Osteoblast-associated markers were quantitated at days 7 and 14. Markers include increased alkaline phosphatas (ALP) activity (FIG. 5) and calcium precipitation in MC3T3-E1 cells (FIG. 6). 6-Bnz-cAMP toxicity was assessed at days 7, 14, and 21 in cells treated with 100 micromolar 6-Bnz-cAMP compared to untreated cells. Trypan blue staining was used to visualize cells (FIG. 7).
ALP activities were measured using ALP assay kit according to the manufacturer's instructions (Bio-Rad, Hercules, Calif.). Briefly, at day 7 and 14, cells were collected and washed 4 times with PBS prior to the ALP activity assay. Cells were then lysed with 0.1% TX-100. Cell lysates were collected and mixed with the ALP substrate solution for 1 h at 37° C. incubation. The colorimetric change due to the presence of ALP activity was measured by a spectrophotometric plate reader at 405 nm. The absorbance values were then normalized to cellular DNA.

The subject of data set [3] is rat mesenchymal stem cells. In words: Quantitative calcium levels in mesenchymal stem cells. The class given is cell-based. To be noted: vs control untreated cells and cells supplemented with BMP-2 peptide. The method, then:
FIG. 9. Quantitative calcium levels determined in untreated (control) rat mesenchymal stem cells and cells treated with BMP-2 or 6-Bnz-cAMP. Keys: D-BMP-2 peptide; E-6-Bnz-cAMP; F-Control.
Cell adhesion, proliferation, and differentiation studies: Rabbit MSCs are plated onto PLAGA matrices at a plating density of 1×10^4 cells/cm^2 and cultured in standard basal medium. Four experimental groups are tested: (1) untreated cells, (2) 6-Bnz-cAMP treated cells, (3) BMP-2 treated cells, and (4) 6-Bnz-cAMP and BMP-2 treated cells. […] Initial cell adhesion is determined at 1 h, 3 h, 12 h, and 24 h. Cell proliferation and cell differentiation are determined at 1, 7, 14, and 21 days. Calcium deposition and ALP activity is also measured at days 3, 7, 14, and 21 in untreated cells compared to cells treated with BMP-2 or 6-Bnz-cAMP (FIGS. 9 and 10). […] For the cell adhesion assay, attached cells are quantified by crystal violet stain, a method routinely used to measure the initial cell adhesion. Cell proliferation is measured using a commercially available proliferation assay kit, MTS (Promega). For alkaline phosphatase (ALP) activity, the early markers of osteoblast differentiation are determined with a commercially availia ALP assay kit (Bio-rad). […] PCR amplification will be carried out and the resulting products will be analyzed by DNA gel electrophoresis and sequencing. […]

Data set [4] relates to rat mesenchymal stem cells. The experiment in a line: ALP activity in mesenchymal stem cells. The class given is cell-based. To be noted: vs untreated control; day 7. The method, then:
FIG. 10. ALP activity in untreated (control) rat mesenchymal stem cells and cells treated with BMP-2 or 6-Bnz-cAMP. A-BMP-2 peptide; E-6-Bnz-cAMP; F-Control. […] ALP activities of mesenchymal stem cells were induced by 6-Bnz-cAMP at day 7.
Cell adhesion, proliferation, and differentiation studies: Rabbit MSCs are plated onto PLAGA matrices at a plating density of 1×10^4 cells/cm^2 and cultured in standard basal medium. Four experimental groups are tested: (1) untreated cells, (2) 6-Bnz-cAMP treated cells, (3) BMP-2 treated cells, and (4) 6-Bnz-cAMP and BMP-2 treated cells. […] Initial cell adhesion is determined at 1 h, 3 h, 12 h, and 24 h. Cell proliferation and cell differentiation are determined at 1, 7, 14, and 21 days. Calcium deposition and ALP activity is also measured at days 3, 7, 14, and 21 in untreated cells compared to cells treated with BMP-2 or 6-Bnz-cAMP (FIGS. 9 and 10). […] For the cell adhesion assay, attached cells are quantified by crystal violet stain, a method routinely used to measure the initial cell adhesion. Cell proliferation is measured using a commercially available proliferation assay kit, MTS (Promega). For alkaline phosphatase (ALP) activity, the early markers of osteoblast differentiation are determined with a commercially availia ALP assay kit (Bio-rad). […]

Data set [5] concerns Protein Kinase A (PKA). To be noted: compared to non-specific cAMP analogue db-cAMP; cited from earlier work.
Data set [6] has as its system Epac-Rap1 pathway. To be noted: unlike cAMP; cited from earlier work.
For data set [7] the following is noted: designed to resist enzymatic degradation in vivo; cited from earlier work.

Take `O=C(Nc1ncnc2c1ncn2C1O[C@@H]2COP(=O)([O-])O[C@H]2[C@H]1O)c1ccccc1.[Na+]` (some centres unmarked) [6-Bnz-cAMP, N^6-Benzoyladenosine-3′,5′-cyclic monophosphate]: in data set [1], the initial cell adhesion entry is on record as “enhances the initial cell adhesion”. Also, the ALP activity entry in data set [2] (day 7) is “induced”; in data set [2] (day 14), “further increased”; in data set [4], “increases ALP activity”. For the same compound, the calcium deposition entry in data set [3] is given as “further enhanced calcium deposition”. The “activation of the Protein Kinase A (PKA) pathway” value in data set [5] is “selectively activates”. In addition, the “activation of the Epac-Rap1 pathway” value in data set [6] was “does not activate”. Moreover, the half-life entry in data set [7] is given as “long half-life”.
